The source of these data is US6812377B2, “Genetic engineering of syringyl-enriched lignin in plants” (Board of Control of Michigan Technological University, priority 2000, dated 2004).

For assay [1], the target named is T1, PtCAD (recombinant coniferyl alcohol dehydrogenase, GenBank AF217957, C-terminal His tag, expressed in E. coli BL21(DE3)) (Populus tremuloides, UniProt Q9M632).
T1 sequence (Q9M632 1-357): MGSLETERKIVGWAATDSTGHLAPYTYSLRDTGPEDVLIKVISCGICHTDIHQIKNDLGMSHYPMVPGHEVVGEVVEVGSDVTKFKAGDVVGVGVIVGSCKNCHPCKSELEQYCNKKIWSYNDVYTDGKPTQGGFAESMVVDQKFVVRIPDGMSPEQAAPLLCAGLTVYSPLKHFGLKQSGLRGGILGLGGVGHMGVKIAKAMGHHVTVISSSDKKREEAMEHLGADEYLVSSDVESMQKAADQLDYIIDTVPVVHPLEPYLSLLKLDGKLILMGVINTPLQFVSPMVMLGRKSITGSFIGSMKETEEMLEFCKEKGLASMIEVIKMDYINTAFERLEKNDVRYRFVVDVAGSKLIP
Put plainly: Inhibition kinetics of PtCAD: PtCAD-mediated reduction of sinapaldehyde in the presence of coniferaldehyde, HPLC-UV/MS (FIG. 6). The assay is classed as biochemical, Populus tremuloides (quaking aspen). The settings on record: coniferaldehyde (1 to 5 μM) as inhibitor of PtCAD-mediated reduction of sinapaldehyde (1 to 200 μM); 500 μM NADPH; 1.2 μg purified recombinant PtCAD; pH 8.0; 4 min; 30° C.; read-out: apparent inhibition constant (Ki). An excerpt: FIG. 6 illustrates inhibition kinetics of PtCAD and PtSAD;
A guaiacyl pathway gene encoding coniferyl alcohol dehydrogenase (CAD, FIG. 1) from Populus tremuloides (GenBank #AF217957) was first cloned. This cDNA was designated as PtCAD (GenBank #AF217957). E. coli-expressed recombinant PtCAD protein was characterized for its catalytic activity with coniferaldehyde and sinapaldehyde. Because monolignol biosynthetic pathway intermediates are present together in lignifying tissues (Osakabe et al., 1999; Li et al. 2000), the PtCAD enzyme activity with a mixture of coniferaldehyde and sinapaldehyde was assayed. As shown in FIG. 5 (a) and (c), the reaction mixture was separated by HPLC after the enzyme reaction. […] Thus, PtCAD has a specific catalytic reaction function with coniferaldehyde for the biosynthesis of guaiacyl monolignol, coniferyl alcohol (FIG. 1). […]
For normal and inhibition kinetic analyses, the reaction time was 4 min and pH was 8.0 for PtCAD (1.2 μg of purified recombinant protein) and 7.0 for PtSAD (0.1 μg). […] All reactions were terminated by the addition of 10 μL of 6 N HCI (to bring the pH to 2) and 500 ng of internal standard o-coumaric acid and analyzed by HPLC-UV/MS. […]

The target of assay [2] is recombinant PtCAD protein (Populus tremuloides, UniProt Q9M632). The assay is described as follows: PtCAD enzyme activity with a mixture of coniferaldehyde and sinapaldehyde (HPLC-MS). The assay is classed as biochemical. An excerpt:
A guaiacyl pathway gene encoding coniferyl alcohol dehydrogenase (CAD, FIG. 1) from Populus tremuloides (GenBank #AF217957) was first cloned. This cDNA was designated as PtCAD (GenBank #AF217957). E. coli-expressed recombinant PtCAD protein was characterized for its catalytic activity with coniferaldehyde and sinapaldehyde. Because monolignol biosynthetic pathway intermediates are present together in lignifying tissues (Osakabe et al., 1999; Li et al. 2000), the PtCAD enzyme activity with a mixture of coniferaldehyde and sinapaldehyde was assayed. As shown in FIG. 5 (a) and (c), the reaction mixture was separated by HPLC after the enzyme reaction. […]
An aliquot of 100 μL of reaction mixture was injected directly onto a Supelcosil LC-ABZ column (15 cm×4.6 mm×5 μm; Supelco, Bellefonte, Pa.) with automatic sample injection and separated isocratically with a Hewlett-Packard (HP) 1100 liquid chromatography system at 40° C. and a flow rate of 0.25 mL/min. […] The reaction products were identified and confirmed by comparing the ion fragmentation patterns of the product and the authentic standard in MS scanning mode at 70 V. The product quantity and Km, Vmax, kcat, and apparent inhibition constant (Ki) values (means±SE) were determined as described (Osakabe et al., 1999; Li et al., 2000). […]

For the compound `COc1cc(/C=C/C=O)ccc1O` [Coniferaldehyde], in assay [1], the Ki was determined as 1700 nM. The “reaction of PtCAD with the substrate in a mixture” value in assay [2] is reported as “Only coniferyl alcohol was formed”.
